Non-standard residues stand in square brackets, D forms with d. Residues, ends and D or L forms follow the SMILES beside them. pY = N[C@@H](Cc1ccc(OP(=O)(O)O)cc1)C(=O)O
How the values were obtained:
Lyn SH2 domain = molecular target: T1, Lyn SH2 domain (Homo sapiens, UniProt P07948); experiment: competitive fluorescence polarization, Lyn SH2 domain; format: binding; settings: Table S3, unpaired validation; competition fluorescence polarization; probe FITC-Ahx-GDG-pY-EEISPLLL-NH2 30 nM; [SH2] 106 nM; mean
T1 construct: The human SH2 domains from Fyn (142–248), Lyn (121–228); His6-SUMO (N, cleaved yes); host or cells: Escherichia coli C43(DE3) with BirA helper plasmid
T1 sequence (P07948 121-228): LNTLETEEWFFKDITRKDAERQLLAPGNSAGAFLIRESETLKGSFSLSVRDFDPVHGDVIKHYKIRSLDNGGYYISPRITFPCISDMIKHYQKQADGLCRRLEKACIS
Description: First, we generated bacterial display datasets and affinity models for three additional SH2 domains from Src‐family kinases Lyn, Blk, and Yes (Figure 5a). For validation of the affinity model for Lyn, we selected a subset of phosphopeptides that were likely to fall within the dynamic range of the competitive fluorescence polarization assay (see “Methods” for details). […] We measured binding affinities to the corresponding phosphopeptides by fluorescence polarization.
The human SH2 domains from Fyn (142–248), Lyn (121–228), Blk (116–222), and Yes (150–257) kinases were PCR‐amplified from plasmids encoding the full‐length proteins and cloned using the NEBuilder® HiFi DNA Assembly Master Mix (NEB) in a pET plasmid backbone that was PCR‐amplified with the primers pETXbaI_for and pETXhoI_rev (these and all other primers are defined in Table S7) from the pET‐His6‐SUMO‐Grb2(SH2), as reported before (Li et al., [2023]), thus adding an N‐terminal His6‐SUMO tag and a C‐terminal AviTag® for biotinylation. The SH2 plasmids are available via Addgene: pET28‐His6‐SUMO‐Fyn‐SH2‐AviTag (214202), pET28‐His6‐SUMO‐Blk‐SH2‐AviTag (214204), pET28‐His6‐SUMO‐Lyn‐SH2‐AviTag (214207), pET28‐His6‐SUMO‐Yes‐SH2‐AviTag (214208), and pET28‐His6‐SUMO‐cSrc‐SH2‐AviTag (214230). For expression and parallel biotinylating of the SH2 domain product, Escherichia coli C43(DE3) cells carrying a BirA encoding helper plasmid were transformed with the respective SH2 domain expression construct and plated to grow overnight at 37°C on a streptomycin and kanamycin (100 μg/mL both) LB‐agar plate. The colonies were collected in 10 mL of TB medium and used to inoculate 1 L of TB medium and grown at 37°C and 215 rpm. Upon reaching an OD600 of 0.5, the expression of the SH2 domains was induced by adding IPTG up to 0.5 mM and biotin up to 250 μM, and the expressing culture was incubated at 18°C for 16–18 h. After removing the medium through centrifugation, the cell pellets were snap‐frozen in liquid N2 and stored at −80°C until purification. To purify the biotinylated SH2 domains, the cell pellets were resuspended in lysis buffer (50 mM Tris, pH 7.5, 300 mM NaCl, 20 mM imidazole, 10% glycerol), supplementing them with 2 mM β‐mercaptoethanol and 1× protease inhibitor cocktail before lysis by sonication (Fisherbrand Sonic Dismembrator). The soluble fraction separated after centrifugation at 33,000 g was run on a HisTrap HP column (Cytiva), then washed with 10 CV of the lysis buffer followed by 10 CV of wash buffer (50 mM Tris, pH 7.5, 50 mM NaCl, 10 mM imidazole, 10% glycerol). Next, the protein was eluted with elution buffer (50 mM Tris, pH 7.5, 50 mM NaCl, 250 mM imidazole, 10% glycerol) directly onto a 5 mL HiTrap Q HP anion exchange column (Cytiva). The biotinylated SH2 domain was then eluted from the anion exchange column with an NaCl gradient (50 mM Tris, pH 7.5, 0.05–1 M NaCl, 1 mM TCEP‐HCl), and the His6‐SUMO tag was cleaved using 0.05 mg/mL Ulp1 protease. The biotinylated SH2 domain was then collected in a flowthrough after running the cleavage reaction over a HisTrap HP column. Finally, the biotinylated SH2 domain in the flowthrough was run on a HiLoad 16/600 Superdex 75 pg size exclusion column (Cytiva) in storage buffer (20 mM HEPES, pH 7.5, 150 mM NaCl, 10% glycerol).

c-Src SH2 domain = molecular target: T2, c-Src SH2 domain (Homo sapiens, UniProt P12931); experiment: competitive fluorescence polarization, c-Src SH2 domain; format: binding; settings: Table S3, unpaired validation; competition fluorescence polarization; probe FITC-Ahx-GDG-pY-EEISPLLL-NH2 30 nM; [SH2] 123-126 nM; mean
T2 construct: the SH2 domain from c‐Src kinase; His6-SUMO (N, cleaved yes); host or cells: Escherichia coli C43(DE3) with BirA helper plasmid
T2 sequence (P12931 151-248 limits assumed): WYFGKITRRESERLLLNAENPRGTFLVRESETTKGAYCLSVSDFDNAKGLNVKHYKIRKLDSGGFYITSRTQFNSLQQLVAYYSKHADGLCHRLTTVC
Description: Measured binding constants (K D) from competition mode fluorescence polarization experiments were obtained using the purified SH2 domains used for the selection and chosen sets of peptides with a phosphorylated tyrosine exactly as described previously (Li et al., [2023]). […] Before performing the competition mode fluorescence polarization measurement, the K D of the probes for the respective SH2 domains was first measured in a direct mode of fluorescence polarization. […] Using the validation data for the Fyn SH2 domain, the range of predicted relative binding affinities that corresponds to the range between 1 nM and 100 μM, which is the dynamic range of reliable measurement of absolute binding affinities using our competitive fluorescence polarization setup, was defined and used to further filter the set of candidate phosphopeptides. A subset that evenly covers the chosen range of predicted relative affinities was finally picked for the validation measurements of the Lyn SH2 domain.

Grb2 SH2 domain = Grb2 SH2 domain (Homo sapiens, UniProt P62993); experiment: biochemical
Grb2 SH2 domain, sequence (P62993 60-152 limits assumed): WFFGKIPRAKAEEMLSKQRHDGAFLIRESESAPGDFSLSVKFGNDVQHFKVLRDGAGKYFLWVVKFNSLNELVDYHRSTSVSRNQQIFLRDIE
Description: Measured binding constants (K D) from competition mode fluorescence polarization experiments were obtained using the purified SH2 domains used for the selection and chosen sets of peptides with a phosphorylated tyrosine exactly as described previously (Li et al., [2023]). […] (c‐Src SH2 consensus) was used as the probe, and for the Grb2 SH2 domain, the fluorescently labeled peptide FITC‐Ahx‐FDDPS(pY)VNVQN (Ahx = 6‐aminohexanoic acid) from the Y177 phospho‐tyrosine site of BCR. Before performing the competition mode fluorescence polarization measurement, the K D of the probes for the respective SH2 domains was first measured in a direct mode of fluorescence polarization. […] For the set of peptides where single point mutations were compared, phosphopeptides reported in the PhosphoSitePlus database (Hornbeck et al., [2015]) and previously shown to bind to the c‐Src SH2 domain (Li et al., [2023]) were chosen alongside their respective single point mutants. To choose phosphopeptides for validation of the Lyn SH2 domain, we started from all verified phosphopeptides found in PhosphoSitePlus, filtered based on their co‐expression with the Lyn kinase using the STRING database. Using the validation data for the Fyn SH2 domain, the range of predicted relative binding affinities that corresponds to the range between 1 nM and 100 μM, which is the dynamic range of reliable measurement of absolute binding affinities using our competitive fluorescence polarization setup, was defined and used to further filter the set of candidate phosphopeptides. A subset that evenly covers the chosen range of predicted relative affinities was finally picked for the validation measurements of the Lyn SH2 domain. For the c‐Src, Yes, and Blk SH2 domains, a combination of the previously chosen peptides was used, after verifying that their predicted relative affinities for the given SH2 domain fell within the same measurable range. All peptides containing phosphorylated tyrosine, both fluorescently labeled and non‐labeled, were produced by SynPeptide (China).

SMILES	Kd (Lyn SH2 domain) [nM]	Kd (c-Src SH2 domain) [nM]	Kd (Grb2 SH2 domain) [nM]
CC(=O)N[C@@H](CCC(N)=O)C(=O)NCC(=O)N[C@@H](CCCNC(=N)N)C(=O)N[C@@H](CCCNC(=N)N)C(=O)N[C@@H](CCC(=O)O)C(=O)N[C@@H](CCC(=O)O)C(=O)N[C@@H](Cc1ccc(OP(=O)(O)O)cc1)C(=O)N[C@@H](CC(=O)O)C(=O)N[C@H](C(=O)N[C@@H](CC(C)C)C(=O)N[C@@H](CC(=O)O)C(=O)N[C@@H](CCCCN)C(=O)NCC(N)=O)C(C)C [CD3Z pY83] (Ac-QGRREE[pY]DVLDKG-NH2)	2950	–	–
CC[C@H](C)[C@H](NC(=O)[C@H](CCC(=O)O)NC(=O)[C@H](CC(=O)O)NC(=O)[C@H](Cc1ccc(OP(=O)(O)O)cc1)NC(=O)[C@@H](NC(=O)[C@H](CCCNC(=N)N)NC(=O)[C@H](CO)NC(=O)[C@H](CCC(=O)O)NC(=O)[C@H](C)NC(=O)[C@H](CCC(N)=O)NC(C)=O)[C@@H](C)CC)C(=O)N[C@@H](CC(C)C)C(=O)N[C@@H](CCC(N)=O)C(=O)NCC(N)=O [CD84 pY296] (Ac-QAESRI[pY]DEILQG-NH2)	91	28.1	–
CC[C@H](C)[C@H](NC(=O)[C@H](CC(N)=O)NC(=O)[C@H](CCCCN)NC(=O)[C@H](Cc1ccc(OP(=O)(O)O)cc1)NC(=O)[C@H](CC(=O)O)NC(=O)[C@@H](NC(=O)CNC(=O)CNC(=O)[C@H](CCC(=O)O)NC(=O)[C@H](CCC(N)=O)NC(C)=O)C(C)C)C(=O)N[C@@H](Cc1c[nH]cn1)C(=O)N[C@@H](CC(C)C)C(=O)NCC(N)=O [CSF1R pY699] (Ac-QEGGVD[pY]KNIHLG-NH2)	22800	–	–
CC[C@H](C)[C@H](NC(=O)[C@H](CC(=O)O)NC(=O)[C@H](CCC(N)=O)NC(C)=O)C(=O)N[C@@H](CC(N)=O)C(=O)N[C@@H](CO)C(=O)N[C@@H](CC(C)C)C(=O)N[C@@H](Cc1ccc(OP(=O)(O)O)cc1)C(=O)N[C@@H](CC(=O)O)C(=O)N[C@H](C(=O)N[C@@H](CO)C(=O)N[C@@H](CCCNC(=N)N)C(=O)N[C@@H](CCSC)C(=O)NCC(N)=O)C(C)C [PLCG2 pY 753] (Ac-QDINSL[pY]DVSRMG-NH2)	11700	12300	–
CC(=O)N[C@@H](CCC(N)=O)C(=O)N[C@@H](Cc1c[nH]cn1)C(=O)N[C@@H](CCCCN)C(=O)N[C@@H](CCC(=O)O)C(=O)N[C@@H](CC(=O)O)C(=O)N[C@H](C(=O)N[C@@H](Cc1ccc(OP(=O)(O)O)cc1)C(=O)N[C@@H](CCC(=O)O)C(=O)N[C@@H](CC(N)=O)C(=O)N[C@@H](CC(C)C)C(=O)N[C@@H](Cc1c[nH]cn1)C(=O)N[C@H](C(=O)NCC(N)=O)[C@@H](C)O)C(C)C [PTPN6 pY564] (Ac-QHKEDV[pY]ENLHTG-NH2)	943	909	–
CC[C@H](C)[C@H](NC(=O)[C@H](CCC(=O)O)NC(=O)[C@H](CO)NC(=O)[C@H](Cc1ccc(OP(=O)(O)O)cc1)NC(=O)[C@H](CCC(=O)O)NC(=O)[C@@H](NC(=O)[C@@H](NC(=O)[C@H](CO)NC(=O)[C@@H]1CCCN1C(=O)[C@H](CCC(N)=O)NC(C)=O)[C@@H](C)O)[C@@H](C)O)C(=O)N[C@@H](CCCCN)C(=O)N[C@H](C(=O)NCC(N)=O)[C@@H](C)O [SIGLEC5 pY544] (Ac-QPSTTE[pY]SEIKTG-NH2)	362	282	–
CC(=O)N[C@@H](CCC(N)=O)C(=O)N[C@@H](CC(=O)O)C(=O)N[C@@H](CC(=O)O)C(=O)N[C@@H](CCC(N)=O)C(=O)N[C@@H](CCC(=O)O)C(=O)N[C@H](C(=O)N[C@@H](Cc1ccc(OP(=O)(O)O)cc1)C(=O)N[C@@H](CC(=O)O)C(=O)N[C@@H](CC(=O)O)C(=O)N[C@H](C(=O)N[C@@H](C)C(=O)N[C@@H](CCC(=O)O)C(=O)NCC(N)=O)C(C)C)C(C)C [SLAP-130 pY595] (Ac-QDDQEV[pY]DDVAEG-NH2)	240	191	–
CC[C@H](C)[C@H](NC(=O)[C@H](CC(=O)O)NC(=O)[C@H](CC(=O)O)NC(=O)[C@H](Cc1ccc(OP(=O)(O)O)cc1)NC(=O)[C@@H](NC(=O)[C@H](CCC(=O)O)NC(=O)CNC(=O)[C@H](CC(=O)O)NC(=O)[C@H](CC(N)=O)NC(=O)[C@H](CCC(N)=O)NC(C)=O)[C@@H](C)CC)C(=O)N[C@@H](C)C(=O)N[C@@H](CC(=O)O)C(=O)NCC(N)=O [SLAP-130 pY771] (Ac-QNDGEI[pY]DDIADG-NH2)	96.8	94	–
CC[C@H](C)[C@H](NC(=O)[C@H](CC(N)=O)NC(=O)[C@H](Cc1c[nH]cn1)NC(=O)[C@H](CCC(N)=O)NC(C)=O)C(=O)N[C@@H](Cc1c[nH]cn1)C(=O)N[C@@H](CO)C(=O)N[C@@H](Cc1ccc(OP(=O)(O)O)cc1)C(=O)N[C@H](C(=O)N[C@@H](CC(N)=O)C(=O)N[C@H](C(=O)N1CCC[C@H]1C(=O)N1CCC[C@H]1C(=O)NCC(N)=O)[C@@H](C)CC)[C@@H](C)CC [Syn-G2-2] (Ac-QHNIHS[pY]INIPPG-NH2)	–	–	3.99
CC[C@H](C)[C@H](NC(=O)[C@H](CC(N)=O)NC(=O)[C@H](Cc1c[nH]cn1)NC(=O)[C@H](Cc1ccc(OP(=O)(O)O)cc1)NC(=O)[C@H](CCCNC(=N)N)NC(=O)[C@H](CCC(N)=O)NC(=O)[C@H](Cc1c[nH]cn1)NC(=O)CNC(=O)[C@H](CC(C)C)NC(=O)[C@H](CCC(N)=O)NC(C)=O)C(=O)N[C@H](C(=O)N1CCC[C@H]1C(=O)NCC(N)=O)[C@@H](C)O [Syn-G2-5] (Ac-QLGHQR[pY]HNITPG-NH2)	–	–	487
CC(=O)N[C@@H](CCC(N)=O)C(=O)N[C@@H](CCC(=O)O)C(=O)N[C@@H](Cc1c[nH]c2ccccc12)C(=O)N[C@@H](CCCNC(=N)N)C(=O)N[C@@H](CO)C(=O)N[C@@H](CCC(N)=O)C(=O)N[C@@H](Cc1ccc(OP(=O)(O)O)cc1)C(=O)N[C@@H](CCC(=O)O)C(=O)N[C@@H](C)C(=O)N[C@@H](CC(C)C)C(=O)N[C@@H](CCCCN)C(=O)N[C@@H](CCC(=O)O)C(=O)NCC(N)=O [TRAF3IP3 pY322] (Ac-QEWRSQ[pY]EALKEG-NH2)	3940	6480	–
